Assays:
[1] = target: cholesterol 24-hydroxylase (CH24H, CYP46A1) (Homo sapiens, UniProt Q9Y6A2); assay: […]cholesterol 24-hydroxylation assay by TLC with lysate of CH24H-expressing cells; assay type: biochemical
5-HT2B = target: T1, 5-HT2B (Homo sapiens, UniProt P41595); assay: biochemical; set-up: radioligand displacement binding panel of CNS receptors and transporters, single concentration; details: read-out: Inhibition (%)
T1 construct: gene HTR2B
Source text: (§1) Soticlestat (Supplementary Fig. S1) was discovered as a result of an iterative medicinal chemistry effort following high-throughput screening of an in vitro enzyme assay (Fig. 1A,B).

Adenosine A2B = target: T2, Adenosine A2B (Homo sapiens, UniProt P29275); assay: biochemical; set-up: radioligand displacement binding panel of CNS receptors and transporters, single concentration; details: read-out: Inhibition (%)
T2 construct: gene ADORA2B
T2 sequence (P29275 whole entry): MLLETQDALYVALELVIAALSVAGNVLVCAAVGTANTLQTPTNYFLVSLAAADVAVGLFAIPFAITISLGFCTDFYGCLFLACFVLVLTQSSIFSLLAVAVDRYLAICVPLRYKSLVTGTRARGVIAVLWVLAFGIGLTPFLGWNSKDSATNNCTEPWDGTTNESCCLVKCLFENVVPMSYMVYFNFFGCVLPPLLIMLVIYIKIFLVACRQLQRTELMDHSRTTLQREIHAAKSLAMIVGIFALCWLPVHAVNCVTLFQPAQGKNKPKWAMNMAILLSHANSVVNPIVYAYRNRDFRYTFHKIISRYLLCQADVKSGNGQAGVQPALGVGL
Source text: as §1

Adrenergic β1 = target: T3, Adrenergic β1 (Homo sapiens, UniProt P08588); assay: biochemical; set-up: radioligand displacement binding panel of CNS receptors and transporters, single concentration; details: read-out: Inhibition (%)
T3 construct: gene ADRB1
Source text: as §1

Adrenergic β2 = target: T4, Adrenergic β2 (Homo sapiens, UniProt P07550); assay: biochemical; set-up: radioligand displacement binding panel of CNS receptors and transporters, single concentration; details: read-out: Inhibition (%)
T4 construct: gene ADRB2
Source text: as §1

Adrenergic β3 = target: T5, Adrenergic β3 (Homo sapiens, UniProt P13945); assay: biochemical; set-up: radioligand displacement binding panel of CNS receptors and transporters, single concentration; details: read-out: Inhibition (%)
T5 construct: gene ADRB3
Source text: as §1

Angiotensin AT2 = target: T6, Angiotensin AT2 (Homo sapiens, UniProt P50052); assay: biochemical; set-up: radioligand displacement binding panel of CNS receptors and transporters, single concentration; details: read-out: Inhibition (%)
T6 construct: gene AGTR2
T6 sequence (P50052 whole entry): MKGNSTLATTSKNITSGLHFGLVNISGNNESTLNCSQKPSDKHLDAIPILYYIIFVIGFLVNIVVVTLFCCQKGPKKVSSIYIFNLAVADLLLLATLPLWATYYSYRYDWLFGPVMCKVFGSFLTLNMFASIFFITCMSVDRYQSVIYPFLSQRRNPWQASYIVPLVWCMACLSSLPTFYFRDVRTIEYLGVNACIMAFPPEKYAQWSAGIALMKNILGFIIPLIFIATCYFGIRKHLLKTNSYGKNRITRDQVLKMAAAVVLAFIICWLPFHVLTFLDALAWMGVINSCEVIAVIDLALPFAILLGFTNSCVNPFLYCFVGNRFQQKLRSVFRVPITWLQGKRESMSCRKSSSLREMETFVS
Source text: as §1

Bradykinin B1 = target: T7, Bradykinin B1 (Homo sapiens, UniProt P46663); assay: biochemical; set-up: radioligand displacement binding panel of CNS receptors and transporters, single concentration; details: read-out: Inhibition (%)
T7 construct: gene BDKRB1
Source text: as §1

Cannabinoid CB1 = target: T8, Cannabinoid CB1 (Homo sapiens, UniProt P21554); assay: biochemical; set-up: radioligand displacement binding panel of CNS receptors and transporters, single concentration; details: read-out: Inhibition (%)
T8 construct: gene CNR1
Source text: as §1

Dopamine D1 = target: T9, Dopamine D1 (Homo sapiens, UniProt P21728); assay: biochemical; set-up: radioligand displacement binding panel of CNS receptors and transporters, single concentration; details: read-out: Inhibition (%)
T9 construct: gene DRD1
Source text: as §1

Dopamine D2L = target: T10, Dopamine D2L (Homo sapiens, UniProt P14416); assay: biochemical; set-up: radioligand displacement binding panel of CNS receptors and transporters, single concentration; details: read-out: Inhibition (%)
T10 construct: gene DRD2; long isoform
T10 sequence (P14416 whole entry, canonical isoform): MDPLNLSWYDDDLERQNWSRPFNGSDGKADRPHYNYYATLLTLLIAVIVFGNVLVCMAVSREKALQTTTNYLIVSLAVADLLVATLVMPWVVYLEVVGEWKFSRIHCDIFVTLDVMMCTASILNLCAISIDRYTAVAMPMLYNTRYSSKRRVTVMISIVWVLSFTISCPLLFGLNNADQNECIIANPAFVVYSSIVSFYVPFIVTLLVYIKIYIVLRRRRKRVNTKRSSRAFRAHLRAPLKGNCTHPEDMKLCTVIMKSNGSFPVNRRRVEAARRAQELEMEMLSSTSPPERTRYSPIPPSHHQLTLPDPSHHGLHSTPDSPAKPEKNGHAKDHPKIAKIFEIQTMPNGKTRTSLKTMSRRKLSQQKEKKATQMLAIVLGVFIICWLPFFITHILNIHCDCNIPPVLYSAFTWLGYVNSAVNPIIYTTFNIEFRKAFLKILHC
Source text: as §1

Dopamine D3 = target: T11, Dopamine D3 (Homo sapiens, UniProt P35462); assay: biochemical; set-up: radioligand displacement binding panel of CNS receptors and transporters, single concentration; details: read-out: Inhibition (%)
T11 construct: gene DRD3
T11 sequence (P35462 whole entry): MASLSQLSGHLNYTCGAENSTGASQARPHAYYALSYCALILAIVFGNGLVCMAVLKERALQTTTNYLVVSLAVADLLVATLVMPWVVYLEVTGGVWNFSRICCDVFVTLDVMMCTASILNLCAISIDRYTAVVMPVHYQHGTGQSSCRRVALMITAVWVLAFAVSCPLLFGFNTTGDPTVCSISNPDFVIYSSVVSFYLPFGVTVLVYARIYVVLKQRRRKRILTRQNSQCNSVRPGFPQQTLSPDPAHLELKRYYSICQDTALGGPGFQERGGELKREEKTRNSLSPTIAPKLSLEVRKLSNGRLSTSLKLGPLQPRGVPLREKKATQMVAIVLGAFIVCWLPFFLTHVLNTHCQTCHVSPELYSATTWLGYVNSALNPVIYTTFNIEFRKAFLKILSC
Source text: as §1

Dopamine D4.2 = target: T12, Dopamine D4.2 (Homo sapiens, UniProt P21917); assay: biochemical; set-up: radioligand displacement binding panel of CNS receptors and transporters, single concentration; details: read-out: Inhibition (%)
T12 construct: gene DRD4; D4.2 repeat variant
Source text: as §1

Dopamine transporter = target: T13, Dopamine transporter (Homo sapiens, UniProt Q01959); assay: biochemical; set-up: radioligand displacement binding panel of CNS receptors and transporters, single concentration; details: read-out: Inhibition (%)
T13 construct: gene SLC6A3
T13 sequence (Q01959 whole entry): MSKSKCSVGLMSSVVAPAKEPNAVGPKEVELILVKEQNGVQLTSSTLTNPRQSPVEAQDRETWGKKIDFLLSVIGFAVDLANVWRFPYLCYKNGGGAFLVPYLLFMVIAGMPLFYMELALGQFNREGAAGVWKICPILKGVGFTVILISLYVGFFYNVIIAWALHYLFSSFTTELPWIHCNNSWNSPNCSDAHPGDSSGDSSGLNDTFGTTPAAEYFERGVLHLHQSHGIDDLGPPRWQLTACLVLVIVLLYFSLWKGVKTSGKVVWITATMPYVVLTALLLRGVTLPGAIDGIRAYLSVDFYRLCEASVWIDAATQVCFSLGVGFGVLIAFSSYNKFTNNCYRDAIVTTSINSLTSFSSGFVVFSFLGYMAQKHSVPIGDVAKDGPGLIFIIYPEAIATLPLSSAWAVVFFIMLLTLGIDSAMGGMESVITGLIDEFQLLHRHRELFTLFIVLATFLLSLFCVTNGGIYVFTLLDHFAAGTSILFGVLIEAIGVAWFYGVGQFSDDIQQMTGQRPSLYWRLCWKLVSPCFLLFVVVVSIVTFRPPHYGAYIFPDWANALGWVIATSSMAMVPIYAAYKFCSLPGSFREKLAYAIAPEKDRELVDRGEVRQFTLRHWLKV
Source text: as §1

GABA B1A = target: T14, GABA B1A (Homo sapiens, UniProt Q9UBS5); assay: biochemical; set-up: radioligand displacement binding panel of CNS receptors and transporters, single concentration; details: read-out: Inhibition (%)
T14 construct: gene GABBR1; isoform 1A
Source text: as §1

GABA B1B = target: T15, GABA B1B (Homo sapiens, UniProt Q9UBS5); assay: biochemical; set-up: radioligand displacement binding panel of CNS receptors and transporters, single concentration; details: read-out: Inhibition (%)
T15 construct: gene GABBR1; isoform 1B
Source text: as §1

Histamine H1 = target: T16, Histamine H1 (Homo sapiens, UniProt P35367); assay: biochemical; set-up: radioligand displacement binding panel of CNS receptors and transporters, single concentration; details: read-out: Inhibition (%)
T16 construct: gene HRH1
Source text: as §1

Histamine H2 = target: T17, Histamine H2 (Homo sapiens, UniProt P25021); assay: biochemical; set-up: radioligand displacement binding panel of CNS receptors and transporters, single concentration; details: read-out: Inhibition (%)
T17 construct: gene HRH2
T17 sequence (P25021 whole entry): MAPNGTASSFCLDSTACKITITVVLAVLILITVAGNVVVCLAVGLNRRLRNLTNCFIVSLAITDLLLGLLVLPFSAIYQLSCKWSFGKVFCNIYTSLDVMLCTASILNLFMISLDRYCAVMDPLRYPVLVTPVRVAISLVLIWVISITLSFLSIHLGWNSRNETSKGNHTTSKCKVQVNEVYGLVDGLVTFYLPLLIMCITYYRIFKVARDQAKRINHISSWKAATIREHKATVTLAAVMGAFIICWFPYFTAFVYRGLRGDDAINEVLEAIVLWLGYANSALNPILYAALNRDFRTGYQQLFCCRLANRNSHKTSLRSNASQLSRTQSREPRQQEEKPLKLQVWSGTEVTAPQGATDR
Source text: as §1

Muscarinic M1 = target: T18, Muscarinic M1 (Homo sapiens, UniProt P11229); assay: biochemical; set-up: radioligand displacement binding panel of CNS receptors and transporters, single concentration; details: read-out: Inhibition (%)
T18 construct: gene CHRM1
T18 sequence (P11229 whole entry): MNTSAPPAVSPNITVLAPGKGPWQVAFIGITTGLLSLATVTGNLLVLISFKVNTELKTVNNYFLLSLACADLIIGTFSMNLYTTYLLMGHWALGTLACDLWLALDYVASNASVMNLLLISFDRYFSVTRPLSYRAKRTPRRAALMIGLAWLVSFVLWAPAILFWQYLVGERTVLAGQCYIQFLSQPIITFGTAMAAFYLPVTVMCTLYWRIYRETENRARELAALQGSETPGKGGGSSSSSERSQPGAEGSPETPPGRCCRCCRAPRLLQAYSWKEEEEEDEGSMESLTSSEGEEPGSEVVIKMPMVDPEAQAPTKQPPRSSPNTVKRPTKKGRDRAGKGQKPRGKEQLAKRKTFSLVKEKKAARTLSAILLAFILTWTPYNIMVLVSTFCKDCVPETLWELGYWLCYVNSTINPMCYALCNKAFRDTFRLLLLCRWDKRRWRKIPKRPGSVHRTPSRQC
Source text: as §1

Muscarinic M2 = target: T19, Muscarinic M2 (Homo sapiens, UniProt P08172); assay: biochemical; set-up: radioligand displacement binding panel of CNS receptors and transporters, single concentration; details: read-out: Inhibition (%)
T19 construct: gene CHRM2
T19 sequence (P08172 whole entry): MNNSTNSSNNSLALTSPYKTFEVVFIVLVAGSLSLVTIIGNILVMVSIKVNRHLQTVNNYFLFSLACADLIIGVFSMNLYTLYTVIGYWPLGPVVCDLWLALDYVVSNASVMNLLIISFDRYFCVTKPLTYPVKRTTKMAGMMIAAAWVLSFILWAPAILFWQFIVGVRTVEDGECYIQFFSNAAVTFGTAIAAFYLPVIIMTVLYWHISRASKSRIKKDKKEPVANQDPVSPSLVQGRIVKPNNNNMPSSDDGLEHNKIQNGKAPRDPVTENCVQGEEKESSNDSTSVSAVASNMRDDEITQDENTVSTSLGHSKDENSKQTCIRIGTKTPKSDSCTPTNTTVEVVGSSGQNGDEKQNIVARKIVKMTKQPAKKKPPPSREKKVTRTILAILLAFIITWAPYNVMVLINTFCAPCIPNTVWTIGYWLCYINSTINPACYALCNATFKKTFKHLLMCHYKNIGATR
Source text: as §1

Muscarinic M3 = target: T20, Muscarinic M3 (Homo sapiens, UniProt P20309); assay: biochemical; set-up: radioligand displacement binding panel of CNS receptors and transporters, single concentration; details: read-out: Inhibition (%)
T20 construct: gene CHRM3
Source text: as §1

[2] = target: T21, Norepinephrine transporter (Homo sapiens, UniProt P23975); assay: biochemical; set-up: radioligand displacement binding panel of CNS receptors and transporters, single concentration; details: read-out: Inhibition (%)
T21 construct: gene SLC6A2
Source text: as §1

Opiate κ (OP2, KOP) = target: T22, Opiate κ (OP2, KOP) (Homo sapiens, UniProt P41145); assay: biochemical; set-up: radioligand displacement binding panel of CNS receptors and transporters, single concentration; details: read-out: Inhibition (%)
T22 construct: gene OPRK1
Source text: as §1

Opiate μ (OP3, MOP) = target: T23, Opiate μ (OP3, MOP) (Homo sapiens, UniProt P35372); assay: biochemical; set-up: radioligand displacement binding panel of CNS receptors and transporters, single concentration; details: read-out: Inhibition (%)
T23 construct: gene OPRM1
T23 sequence (P35372 whole entry): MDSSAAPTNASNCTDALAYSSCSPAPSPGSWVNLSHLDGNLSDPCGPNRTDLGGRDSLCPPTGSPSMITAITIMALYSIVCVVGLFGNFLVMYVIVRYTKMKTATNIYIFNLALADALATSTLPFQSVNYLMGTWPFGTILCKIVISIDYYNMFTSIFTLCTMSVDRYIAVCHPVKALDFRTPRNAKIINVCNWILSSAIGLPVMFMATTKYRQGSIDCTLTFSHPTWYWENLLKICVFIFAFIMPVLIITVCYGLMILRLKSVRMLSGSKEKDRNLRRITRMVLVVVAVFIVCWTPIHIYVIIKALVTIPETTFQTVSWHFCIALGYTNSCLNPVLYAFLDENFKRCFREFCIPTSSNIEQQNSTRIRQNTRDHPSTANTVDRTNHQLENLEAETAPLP
Source text: as §1

Serotonin transporter = target: T24, Serotonin transporter (Homo sapiens, UniProt P31645); assay: biochemical; set-up: radioligand displacement binding panel of CNS receptors and transporters, single concentration; details: read-out: Inhibition (%)
T24 construct: gene SLC6A4
Source text: as §1

Vasopressin V1A = target: T25, Vasopressin V1A (Homo sapiens, UniProt P37288); assay: biochemical; set-up: radioligand displacement binding panel of CNS receptors and transporters, single concentration; details: read-out: Inhibition (%)
T25 construct: gene AVPR1A
Source text: as §1

[3] = target: T26, Cholinesterase, Acetyl, ACES (Homo sapiens, UniProt P22303); assay: biochemical; set-up: enzyme inhibition panel, single concentration; details: read-out: Inhibition (%)
T26 construct: gene ACHE
Source text: as §1

Cyclooxygenase (COX-1) = target: T27, Cyclooxygenase (COX-1) (Homo sapiens, UniProt P23219); assay: biochemical; set-up: enzyme inhibition panel, single concentration; details: read-out: Inhibition (%)
T27 construct: gene PTGS1
T27 sequence (P23219 whole entry): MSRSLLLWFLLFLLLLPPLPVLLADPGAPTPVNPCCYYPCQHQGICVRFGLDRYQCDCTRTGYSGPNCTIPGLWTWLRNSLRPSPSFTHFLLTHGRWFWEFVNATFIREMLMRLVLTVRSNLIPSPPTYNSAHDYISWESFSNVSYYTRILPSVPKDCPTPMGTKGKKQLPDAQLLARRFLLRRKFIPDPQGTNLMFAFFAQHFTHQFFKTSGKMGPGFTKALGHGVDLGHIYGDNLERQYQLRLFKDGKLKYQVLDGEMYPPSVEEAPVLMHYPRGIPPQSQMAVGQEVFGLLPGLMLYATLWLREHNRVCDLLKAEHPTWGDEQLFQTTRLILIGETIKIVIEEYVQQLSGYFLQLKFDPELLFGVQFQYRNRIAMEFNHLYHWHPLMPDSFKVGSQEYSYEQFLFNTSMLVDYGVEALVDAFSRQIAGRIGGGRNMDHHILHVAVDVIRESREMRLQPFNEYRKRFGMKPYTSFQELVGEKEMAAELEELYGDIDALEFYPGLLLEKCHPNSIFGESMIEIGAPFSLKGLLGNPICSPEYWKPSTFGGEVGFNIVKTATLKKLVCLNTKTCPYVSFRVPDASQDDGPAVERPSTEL
Source text: as §1

Cyclooxygenase (COX-2) = target: T28, Cyclooxygenase (COX-2) (Homo sapiens, UniProt P35354); assay: biochemical; set-up: enzyme inhibition panel, single concentration; details: read-out: Inhibition (%)
T28 construct: gene PTGS2
Source text: as §1

MAO A = target: T29, MAO A (Homo sapiens, UniProt P21397); assay: biochemical; set-up: enzyme inhibition panel, single concentration; details: read-out: Inhibition (%)
T29 construct: gene MAOA
Source text: as §1

MAO B = target: T30, MAO B (Homo sapiens, UniProt P27338); assay: biochemical; set-up: enzyme inhibition panel, single concentration; details: read-out: Inhibition (%)
T30 construct: gene MAOB
Source text: as §1

[4] = target: T31, Peptidase, Metalloproteinase, Neutral Endopeptidase (Homo sapiens, UniProt P08473); assay: biochemical; set-up: enzyme inhibition panel, single concentration; details: read-out: Inhibition (%)
T31 construct: gene MME
Source text: as §1

Phosphodiesterase 5 = target: T32, Phosphodiesterase 5 (Homo sapiens, UniProt O76074); assay: biochemical; set-up: enzyme inhibition panel, single concentration; details: read-out: Inhibition (%)
T32 construct: gene PDE5A
Source text: as §1

T1 sequence (P41595 whole entry): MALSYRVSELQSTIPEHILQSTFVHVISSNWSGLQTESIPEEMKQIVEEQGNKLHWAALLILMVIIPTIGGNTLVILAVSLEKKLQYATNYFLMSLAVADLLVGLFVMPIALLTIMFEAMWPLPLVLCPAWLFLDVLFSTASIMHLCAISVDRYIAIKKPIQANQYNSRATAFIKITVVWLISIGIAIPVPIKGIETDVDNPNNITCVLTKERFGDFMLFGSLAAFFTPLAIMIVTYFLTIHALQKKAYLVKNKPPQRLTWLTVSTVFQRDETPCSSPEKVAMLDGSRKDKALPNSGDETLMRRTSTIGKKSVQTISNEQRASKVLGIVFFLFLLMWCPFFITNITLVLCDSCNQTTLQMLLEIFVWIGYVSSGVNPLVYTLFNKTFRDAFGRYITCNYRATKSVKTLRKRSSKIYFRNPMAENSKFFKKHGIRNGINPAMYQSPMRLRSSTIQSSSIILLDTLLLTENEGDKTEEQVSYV

Q: Which IC50 [1] does the source give for O=C(c1cccnc1-c1ccncc1)N1CCC(O)(Cc2ccccc2)CC1 [soticlestat, (4-benzyl-4-hydroxypiperidin-1-yl)(2,4′-bipyridin-3-yl) methanone] here?
A: 4.5 nM

Q: And the inhibition at 10 µM (5-HT2B)?
A: 5%

Q: What about the inhibition at 10 µM (Adenosine A2B) of the same molecule?
A: 20%

Q: And the inhibition at 10 µM (Adrenergic β1)?
A: -4%

Q: What about the inhibition at 10 µM (Adrenergic β2) of the same molecule?
A: 6%

Q: And the inhibition at 10 µM (Adrenergic β3)?
A: -7%

Q: What about the inhibition at 10 µM (Angiotensin AT2) of the same molecule?
A: -10%

Q: What about the inhibition at 10 µM (Bradykinin B1) of the same molecule?
A: 13%

Q: What about the inhibition at 10 µM (Cannabinoid CB1) of the same molecule?
A: -5%

Q: And the inhibition at 10 µM (Dopamine D1)?
A: 5%

Q: And the inhibition at 10 µM (Dopamine D2L)?
A: 15%

Q: And the inhibition at 10 µM (Dopamine D3)?
A: 5%

Q: What about the inhibition at 10 µM (Dopamine D4.2) of the same molecule?
A: 0%

Q: And the inhibition at 10 µM (Dopamine transporter)?
A: 0%

Q: And the inhibition at 10 µM (GABA B1A)?
A: 6%

Q: What about the inhibition at 10 µM (GABA B1B) of the same molecule?
A: 8%

Q: What about the inhibition at 10 µM (Histamine H1) of the same molecule?
A: -2%

Q: And the inhibition at 10 µM (Histamine H2)?
A: 5%

Q: What about the inhibition at 10 µM (Muscarinic M1) of the same molecule?
A: 7%

Q: And the inhibition at 10 µM (Muscarinic M2)?
A: 1%

Q: What about the inhibition at 10 µM (Muscarinic M3) of the same molecule?
A: 12%

Q: And the inhibition at 10 µM [2]?
A: -1%

Q: What about the inhibition at 10 µM (Opiate κ (OP2, KOP)) of the same molecule?
A: -1%

Q: What about the inhibition at 10 µM (Opiate μ (OP3, MOP)) of the same molecule?
A: -1%

Q: What about the inhibition at 10 µM (Serotonin transporter) of the same molecule?
A: 6%

Q: What about the inhibition at 10 µM (Vasopressin V1A) of the same molecule?
A: -11%

Q: And the inhibition at 10 µM [3]?
A: 0%

Q: And the inhibition at 10 µM (Cyclooxygenase (COX-1))?
A: -14%

Q: And the inhibition at 10 µM (Cyclooxygenase (COX-2))?
A: 4%

Q: What about the inhibition at 10 µM (MAO A) of the same molecule?
A: 1%

Q: What about the inhibition at 10 µM (MAO B) of the same molecule?
A: 0%

Q: And the inhibition at 10 µM [4]?
A: -4%

Q: What about the inhibition at 10 µM (Phosphodiesterase 5) of the same molecule?
A: -2%

Source: article PMC7553946, “Soticlestat, a novel cholesterol 24-hydroxylase inhibitor shows a therapeutic potential for neural hyperexcitation in mice” (Scientific Reports, 2020)
